Data: the supplement of paper PMC10307832

What follows are cell lines tested with CCN1CCN(c2ccc(Nc3cc(N(C)C(=O)Nc4c(Cl)c(OC)cc(OC)c4Cl)ncn3)cc2)CC1 [BGJ398] + C[C@]1(O)C[C@@H](c2nc(-c3ccc4ccc(-c5ccccc5)nc4c3)c3c(N)nccn32)C1 [Linsitinib] (partner 1 µM) (assay: relative viability (nuclei count vs DMSO), 5 days (fraction); higher = more cells survive). Conditions: first compound 1 µM.
In short: (§1)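 Medians of duplicate plates are given as relative viability. That measure is the nuclei count in treated wells divided by the count in vehicle wells. Counts were taken on 4× images of lung cancer cell lines in 1536-well plates, 5 days after pin-tool dosing the day after seeding with one drug alone or a fixed anchor-drug dose plus five library-drug doses (not always all listed) in √10 steps.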

Cell Line	relative viability
NCI-H1299	0.727
NCI-H1563	0.724
ABC-1	0.658

What follows are cell lines tested with CCN1CCN(c2ccc(Nc3cc(N(C)C(=O)Nc4c(Cl)c(OC)cc(OC)c4Cl)ncn3)cc2)CC1 [BGJ398] + CC(=O)Nc1cccc(-n2c(=O)n(C3CC3)c(=O)c3c(Nc4ccc(I)cc4F)n(C)c(=O)c(C)c32)c1 [Trametinib] (partner 0.02 µM) in the same assay as above. Conditions: first compound 0.01 µM.
In short: as §1

Cell Line	relative viability
NCI-H522	0.743
NCI-H727	0.417
NCI-H1650	0.503
NCI-H1993	0.447
SW 1573	0.477
NCI-H838	0.41
LCLC-103H	0.703
NCI-H520	0.586
NCI-H2126	0.609
EMC-BAC-2	0.919
NCI-H2085	0.498
HCC-366	0.309
NCI-H1666	0.735
NCI-H596	0.719
LK-2	0.788
NCI-H2087	0.142

Cell Line	relative viability
NCI-H2342	1.04
SK-MES-1	0.525
H3255	0.61
COR-L23	0.512
COR-L 105	0.423
LOU-NH91	0.718
ChaGo-K-1	0.876
NCI-H2170	0.941
NCI-H2405	0.495
HOP-62	0.395
HCC-44	1.01
SW 900	0.723
LU99A	0.461
NCI-H1648	0.411
HCC-78	0.55

Same assay, conditions: first compound 0.03162 µM

Cell Line	relative viability
NCI-H522	0.797
NCI-H727	0.412
NCI-H1650	0.568
NCI-H1993	0.524
SW 1573	0.587
NCI-H838	0.537
LCLC-103H	0.623
NCI-H520	0.548
NCI-H2126	0.531
EMC-BAC-2	0.912
NCI-H2085	0.525
HCC-366	0.375
NCI-H1666	0.908
NCI-H596	0.631
LK-2	0.726
NCI-H2087	0.22
NCI-H2342	0.906
SK-MES-1	0.591
COR-L23	0.64
COR-L 105	0.431
LOU-NH91	0.689
ChaGo-K-1	0.914
NCI-H2170	0.937
NCI-H2405	0.654
HOP-62	0.364
HCC-44	1.03
SW 900	0.679
LU99A	0.487
HCC-78	0.868

Same assay, conditions: first compound 0.1 µM

Cell Line	relative viability
NCI-H522	0.709
NCI-H727	0.381
NCI-H1650	0.471
NCI-H1993	0.596
SW 1573	0.455
NCI-H838	0.51
LCLC-103H	0.65
NCI-H520	0.351
NCI-H2126	0.615
EMC-BAC-2	0.929
NCI-H2085	0.505
HCC-366	0.387
NCI-H1666	0.965
NCI-H596	0.773
LK-2	0.561
NCI-H2087	0.188

Cell Line	relative viability
NCI-H2342	0.893
SK-MES-1	0.534
H3255	0.702
COR-L23	0.63
COR-L 105	0.444
LOU-NH91	0.779
ChaGo-K-1	0.871
NCI-H2170	1.02
NCI-H2405	0.622
HOP-62	0.359
HCC-44	1.03
SW 900	0.655
LU99A	0.498
NCI-H1648	0.474
HCC-78	0.858

Same assay, conditions: first compound 0.3162 µM

Cell Line	relative viability
NCI-H522	0.644
NCI-H727	0.389
NCI-H1650	0.304
NCI-H1993	0.441
SW 1573	0.448
NCI-H838	0.403
LCLC-103H	0.642
NCI-H520	0.189
NCI-H2126	0.629
EMC-BAC-2	0.78
NCI-H2085	0.705
HCC-366	0.311
NCI-H1666	0.911
NCI-H596	0.709
LK-2	0.32
NCI-H2087	0.197
NCI-H2342	1.03
SK-MES-1	0.574
COR-L23	0.486
COR-L 105	0.399
LOU-NH91	0.705
ChaGo-K-1	0.922
NCI-H2170	0.91
NCI-H2405	0.463
HOP-62	0.291
HCC-44	1.04
SW 900	0.735
LU99A	0.401
NCI-H1648	0.393
HCC-78	0.696

Same assay, conditions: first compound 1 µM

Cell Line	relative viability
NCI-H522	0.736
NCI-H727	0.385
NCI-H1650	0.25
NCI-H1993	0.595
SW 1573	0.47
NCI-H838	0.382
LCLC-103H	0.535
NCI-H520	0.205
NCI-H2126	0.567
EMC-BAC-2	0.854
NCI-H2085	0.502
HCC-366	0.325
NCI-H1666	0.75
NCI-H596	0.62
LK-2	0.268
NCI-H2087	0.189

Cell Line	relative viability
NCI-H2342	0.978
SK-MES-1	0.63
H3255	0.707
COR-L23	0.68
COR-L 105	0.431
LOU-NH91	0.759
ChaGo-K-1	0.929
NCI-H2170	0.866
NCI-H2405	0.59
HOP-62	0.288
HCC-44	0.949
SW 900	0.568
LU99A	0.401
NCI-H1648	0.417
HCC-78	0.619

Each cell line was assayed with C1=CC2=NC=CN=C2C=C1/C=C/3\C(=O)NC(=O)S3 + Cc1nc(NC(=O)N2CCC[C@H]2C(N)=O)sc1-c1ccnc(C(C)(C)C(F)(F)F)c1 [Alpelisib] (partner 2 µM) in the same assay as above. Conditions: first compound 0.02 µM.
In short: as §1

Cell Line	relative viability
NCI-H727	0.647
EBC-1	0.819
